From ChEMBL document CHEMBL2434921, “New synthetic aliphatic sulfonamido-quaternary ammonium salts as anticancer chemotherapeutic agents” (2013)
The source made the active and inactive calls. The calls are words filed in the database; no cut-off is given here.

How the values were obtained:
HCT-15 [1] = assay: Growth inhibition of human HCT15 cells at 0.1 uM after 48 hrs by SRB assay; values are per cent of control; conditions: HCT-15, 48 h
NCI-H23 [2] = assay: Growth inhibition of human NCI-H23 cells after 48 hrs by SRB assay; assay type: functional; conditions: NCI-H23, 48 h
NCI-H23 [3] = assay: Growth of human NCI-H23 cells at 0.3 uM after 48 hrs by SRB assay; conditions: NCI-H23, 48 h
HCT-15 [4] = assay: Growth inhibition of human HCT15 cells at 10 uM after 48 hrs by SRB assay; values are per cent of control; conditions: HCT-15, 48 h
MDA-MB-231 [5] = assay: Growth of human MDA-MB-231 cells at 10 uM after 48 hrs by SRB assay; conditions: MDA-MB-231, 48 h
ACHN [6] = assay: Growth inhibition of human ACHN cells at 1 uM after 48 hrs by SRB assay; values are per cent of control
NCI-H23 [7] = assay: Growth inhibition of human NCI-H23 cells at 1 uM after 48 hrs by SRB assay; values are per cent of control; conditions: NCI-H23, 48 h
MDA-MB-231 [8] = assay: Growth inhibition of human MDA-MB-231 cells at 0.3 uM after 48 hrs by SRB assay; values are per cent of control; conditions: MDA-MB-231, 48 h
PC-3 [9] = assay: Growth inhibition of human PC3 cells at 1 uM after 48 hrs by SRB assay; values are per cent of control; conditions: PC-3, 48 h
NUGC-3 [10] = assay: Growth of human NUGC3 cells at 1 uM after 48 hrs by SRB assay; conditions: NUGC-3, 48 h
NUGC-3 [11] = assay: Growth of human NUGC3 cells at 0.1 uM after 48 hrs by SRB assay; conditions: NUGC-3, 48 h
PC-3 [12] = assay: Growth inhibition of human PC3 cells after 48 hrs by SRB assay; assay type: functional; conditions: PC-3, 48 h
ACHN [13] = assay: Growth inhibition of human ACHN cells after 48 hrs by SRB assay; assay type: functional
MDA-MB-231 [14] = assay: Growth of human MDA-MB-231 cells at 1 uM after 48 hrs by SRB assay; conditions: MDA-MB-231, 48 h
MDA-MB-231 [15] = assay: Growth inhibition of human MDA-MB-231 cells after 48 hrs by SRB assay; assay type: functional; conditions: MDA-MB-231, 48 h
NUGC-3 [16] = assay: Growth of human NUGC3 cells at 0.3 uM after 48 hrs by SRB assay; conditions: NUGC-3, 48 h
NCI-H23 [17] = assay: Growth inhibition of human NCI-H23 cells at 3 uM after 48 hrs by SRB assay; values are per cent of control; conditions: NCI-H23, 48 h
MDA-MB-231 [18] = assay: Growth of human MDA-MB-231 cells at 0.1 uM after 48 hrs by SRB assay; conditions: MDA-MB-231, 48 h
NUGC-3 [19] = assay: Growth inhibition of human NUGC3 cells after 48 hrs by SRB assay; assay type: functional; conditions: NUGC-3, 48 h
ACHN [20] = assay: Growth inhibition of human ACHN cells at 3 uM after 48 hrs by SRB assay; values are per cent of control
ACHN [21] = assay: Growth of human ACHN cells at 10 uM after 48 hrs by SRB assay
PC-3 [22] = assay: Growth inhibition of human PC3 cells at 0.1 uM after 48 hrs by SRB assay; values are per cent of control; conditions: PC-3, 48 h
NUGC-3 [23] = assay: Growth inhibition of human NUGC3 cells at 10 uM after 48 hrs by SRB assay; values are per cent of control; conditions: NUGC-3, 48 h
[24] = target: Rho-related GTP-binding protein RhoB (Homo sapiens) (UniProt P62745); assay: Transactivation of RhoB (unknown origin) transfected in human HeLa cells at 5 uM measured over 10 secs by dual luciferase reporter gene assay; assay type: cell-based
NCI-H23 [25] = assay: Growth inhibition of human NCI-H23 cells at 0.1 uM after 48 hrs by SRB assay; values are per cent of control; conditions: NCI-H23, 48 h
PC-3 [26] = assay: Growth inhibition of human PC3 cells at 3 uM after 48 hrs by SRB assay; values are per cent of control; conditions: PC-3, 48 h
HCT-15 [27] = assay: Growth of human HCT15 cells at 0.3 uM after 48 hrs by SRB assay; conditions: HCT-15, 48 h
HCT-15 [28] = assay: Growth of human HCT15 cells at 3 uM after 48 hrs by SRB assay; conditions: HCT-15, 48 h
ACHN [29] = assay: Growth of human ACHN cells at 0.1 uM after 48 hrs by SRB assay
PC-3 [30] = assay: Growth inhibition of human PC3 cells at 0.3 uM after 48 hrs by SRB assay; values are per cent of control; conditions: PC-3, 48 h
HCT-15 [31] = assay: Growth inhibition of human HCT15 cells at 1 uM after 48 hrs by SRB assay; values are per cent of control; conditions: HCT-15, 48 h
NUGC-3 [32] = assay: Growth inhibition of human NUGC3 cells at 3 uM after 48 hrs by SRB assay; values are per cent of control; conditions: NUGC-3, 48 h
PC-3 [33] = assay: Growth of human PC3 cells at 10 uM after 48 hrs by SRB assay; conditions: PC-3, 48 h
NCI-H23 [34] = assay: Growth of human NCI-H23 cells at 10 uM after 48 hrs by SRB assay; conditions: NCI-H23, 48 h
HCT-15 [35] = assay: Growth inhibition of human HCT15 cells after 48 hrs by SRB assay; assay type: functional; conditions: HCT-15, 48 h
ACHN [36] = assay: Growth of human ACHN cells at 0.3 uM after 48 hrs by SRB assay
MDA-MB-231 [37] = assay: Growth of human MDA-MB-231 cells at 3 uM after 48 hrs by SRB assay; values are per cent of control; conditions: MDA-MB-231, 48 h

Chain of Rho-related GTP-binding protein RhoB (Homo sapiens) (P62745 whole entry): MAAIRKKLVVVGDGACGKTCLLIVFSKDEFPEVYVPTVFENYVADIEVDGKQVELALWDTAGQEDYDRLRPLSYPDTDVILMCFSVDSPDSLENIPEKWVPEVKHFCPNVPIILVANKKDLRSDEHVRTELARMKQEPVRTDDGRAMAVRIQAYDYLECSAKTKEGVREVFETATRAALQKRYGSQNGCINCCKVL

CCCCCCCCCCCCCCS(=O)(=O)N(C)CC[N+](CC)(CC)CC
growth, % of control at 0.1 µM (HCT-15 [1]): 95.3%
GI50 (NCI-H23 [2]): 470 nM
growth, % of control at 0.3 µM (NCI-H23 [3]): 90.1%
growth, % of control at 10 µM (HCT-15 [4]): 36%
growth, % of control at 10 µM (MDA-MB-231 [5]): 17.2%
growth, % of control at 1 µM (ACHN [6]): 68.7%
growth, % of control at 1 µM (NCI-H23 [7]): 39.8%
growth, % of control at 0.3 µM (MDA-MB-231 [8]): 95.3%
growth, % of control at 1 µM (PC-3 [9]): 41.4%
growth, % of control at 1 µM (NUGC-3 [10]): 20.9%
growth, % of control at 0.1 µM (NUGC-3 [11]): 92%
GI50 (PC-3 [12]): 520 nM
GI50 (ACHN [13]): 1460 nM
growth, % of control at 1 µM (MDA-MB-231 [14]): 54.2%
GI50 (MDA-MB-231 [15]): 870 nM
growth, % of control at 0.3 µM (NUGC-3 [16]): 83.8%
growth, % of control at 3 µM (NCI-H23 [17]): 15%
growth, % of control at 0.1 µM (MDA-MB-231 [18]): 96.4%
GI50 (NUGC-3 [19]): 320 nM
growth, % of control at 3 µM (ACHN [20]): 48.6%
growth, % of control at 10 µM (ACHN [21]): 21.2%
growth, % of control at 0.1 µM (PC-3 [22]): 103%
growth, % of control at 10 µM (NUGC-3 [23]): -1.3%
Activity [24]: Active
growth, % of control at 0.1 µM (NCI-H23 [25]): 97.3%
growth, % of control at 3 µM (PC-3 [26]): 0.9%
growth, % of control at 0.3 µM (HCT-15 [27]): 96.6%
growth, % of control at 3 µM (HCT-15 [28]): 72.5%
growth, % of control at 0.1 µM (ACHN [29]): 96.4%
growth, % of control at 0.3 µM (PC-3 [30]): 102%
growth, % of control at 1 µM (HCT-15 [31]): 87.1%
growth, % of control at 3 µM (NUGC-3 [32]): 7.9%
growth, % of control at 10 µM (PC-3 [33]): -11.5%
growth, % of control at 10 µM (NCI-H23 [34]): -5.6%
GI50 (HCT-15 [35]): 3460 nM
growth, % of control at 0.3 µM (ACHN [36]): 94.5%
growth, % of control at 3 µM (MDA-MB-231 [37]): 34.1%

CCCCCCCCCCCCCCS(=O)(=O)N(C)CCC[N+](C)(C)C
growth, % of control at 0.1 µM (HCT-15 [1]): 92.4%
GI50 (NCI-H23 [2]): 210 nM
growth, % of control at 0.3 µM (NCI-H23 [3]): 70.6%
growth, % of control at 10 µM (HCT-15 [4]): 24.8%
growth, % of control at 10 µM (MDA-MB-231 [5]): 23.5%
growth, % of control at 1 µM (ACHN [6]): 57.2%
growth, % of control at 1 µM (NCI-H23 [7]): 8%
growth, % of control at 0.3 µM (MDA-MB-231 [8]): 98.1%
growth, % of control at 1 µM (PC-3 [9]): 18.6%
growth, % of control at 1 µM (NUGC-3 [10]): 22.7%
growth, % of control at 0.1 µM (NUGC-3 [11]): 83.9%
GI50 (PC-3 [12]): 300 nM
GI50 (ACHN [13]): 1010 nM
growth, % of control at 1 µM (MDA-MB-231 [14]): 66.6%
GI50 (MDA-MB-231 [15]): 1260 nM
growth, % of control at 0.3 µM (NUGC-3 [16]): 42.8%
growth, % of control at 3 µM (NCI-H23 [17]): -19.7%
growth, % of control at 0.1 µM (MDA-MB-231 [18]): 102%
GI50 (NUGC-3 [19]): 150 nM
growth, % of control at 3 µM (ACHN [20]): 37.8%
growth, % of control at 10 µM (ACHN [21]): 27.1%
growth, % of control at 0.1 µM (PC-3 [22]): 97.1%
growth, % of control at 10 µM (NUGC-3 [23]): -12.9%
Activity [24]: Active
growth, % of control at 0.1 µM (NCI-H23 [25]): 84.8%
growth, % of control at 3 µM (PC-3 [26]): -0.1%
growth, % of control at 0.3 µM (HCT-15 [27]): 87.9%
growth, % of control at 3 µM (HCT-15 [28]): 29.9%
growth, % of control at 0.1 µM (ACHN [29]): 85.3%
growth, % of control at 0.3 µM (PC-3 [30]): 86.4%
growth, % of control at 1 µM (HCT-15 [31]): 46.2%
growth, % of control at 3 µM (NUGC-3 [32]): 8.5%
growth, % of control at 10 µM (PC-3 [33]): -17.4%
growth, % of control at 10 µM (NCI-H23 [34]): -50.6%
GI50 (HCT-15 [35]): 680 nM
growth, % of control at 0.3 µM (ACHN [36]): 93.4%
growth, % of control at 3 µM (MDA-MB-231 [37]): 42.1%

C=CC[N+](CC)(CC)CCN(C)S(=O)(=O)CCCCCCCCCCCCCCCC
growth, % of control at 0.1 µM (HCT-15 [1]): 87.9%
GI50 (NCI-H23 [2]): 450 nM
growth, % of control at 0.3 µM (NCI-H23 [3]): 78.4%
growth, % of control at 10 µM (HCT-15 [4]): -7%
growth, % of control at 10 µM (MDA-MB-231 [5]): 9.2%
growth, % of control at 1 µM (ACHN [6]): 82.2%
growth, % of control at 1 µM (NCI-H23 [7]): 51.3%
growth, % of control at 0.3 µM (MDA-MB-231 [8]): 97%
growth, % of control at 1 µM (PC-3 [9]): 73.3%
growth, % of control at 1 µM (NUGC-3 [10]): 34.9%
growth, % of control at 0.1 µM (NUGC-3 [11]): 89.1%
GI50 (PC-3 [12]): 760 nM
GI50 (ACHN [13]): 1450 nM
growth, % of control at 1 µM (MDA-MB-231 [14]): 80.6%
GI50 (MDA-MB-231 [15]): 1340 nM
growth, % of control at 0.3 µM (NUGC-3 [16]): 86.6%
growth, % of control at 3 µM (NCI-H23 [17]): 16.9%
growth, % of control at 0.1 µM (MDA-MB-231 [18]): 94.8%
GI50 (NUGC-3 [19]): 390 nM
growth, % of control at 3 µM (ACHN [20]): 50.4%
growth, % of control at 10 µM (ACHN [21]): -11.8%
growth, % of control at 0.1 µM (PC-3 [22]): 88.2%
growth, % of control at 10 µM (NUGC-3 [23]): -20.2%
Activity [24]: Active
growth, % of control at 0.1 µM (NCI-H23 [25]): 77.9%
growth, % of control at 3 µM (PC-3 [26]): 10%
growth, % of control at 0.3 µM (HCT-15 [27]): 90.7%
growth, % of control at 3 µM (HCT-15 [28]): 66.6%
growth, % of control at 0.1 µM (ACHN [29]): 85.9%
growth, % of control at 0.3 µM (PC-3 [30]): 91%
growth, % of control at 1 µM (HCT-15 [31]): 84%
growth, % of control at 3 µM (NUGC-3 [32]): 4.9%
growth, % of control at 10 µM (PC-3 [33]): -13.2%
growth, % of control at 10 µM (NCI-H23 [34]): -7.6%
GI50 (HCT-15 [35]): 1810 nM
growth, % of control at 0.3 µM (ACHN [36]): 88.2%
growth, % of control at 3 µM (MDA-MB-231 [37]): 42.9%
